This note sets out measurements from publication PMC3188286 (Journal of Medicinal Chemistry, 2011).

Bounds are passed on as bounds.

Data set [1] has as its system bloodstream form T. brucei brucei. Briefly: Resazurin fluorescence-based cell viability assay, T. brucei. Further details: species or system Trypanosoma brucei brucei.
In data set [2] the target is T1, T. brucei TryR (Trypanosoma brucei brucei, UniProt P39051). Briefly: Mode of inhibition studies. The data set is classed as biochemical. To be noted: for mode of inhibition: with respect to trypanothione disulfide.
In data set [3] the target is T1, T. brucei TryR. The data set is described as follows: TryR enzyme assay. The data set is classed as biochemical, Trypanosoma brucei brucei strain S427. To be noted: for ligand efficiency: from T. brucei TryR IC50; for fold less active than 9a against TryR: vs 9a; for improvement in TryR potency with respect to ester 1c: vs 1c IC50 9.4 μM.
A short description of data set [4]: Resazurin viability counter-screen, MRC5 cells. The data set is classed as cell-based. To be noted: human, MRC-5 cells.

T1 sequence (P39051 whole entry): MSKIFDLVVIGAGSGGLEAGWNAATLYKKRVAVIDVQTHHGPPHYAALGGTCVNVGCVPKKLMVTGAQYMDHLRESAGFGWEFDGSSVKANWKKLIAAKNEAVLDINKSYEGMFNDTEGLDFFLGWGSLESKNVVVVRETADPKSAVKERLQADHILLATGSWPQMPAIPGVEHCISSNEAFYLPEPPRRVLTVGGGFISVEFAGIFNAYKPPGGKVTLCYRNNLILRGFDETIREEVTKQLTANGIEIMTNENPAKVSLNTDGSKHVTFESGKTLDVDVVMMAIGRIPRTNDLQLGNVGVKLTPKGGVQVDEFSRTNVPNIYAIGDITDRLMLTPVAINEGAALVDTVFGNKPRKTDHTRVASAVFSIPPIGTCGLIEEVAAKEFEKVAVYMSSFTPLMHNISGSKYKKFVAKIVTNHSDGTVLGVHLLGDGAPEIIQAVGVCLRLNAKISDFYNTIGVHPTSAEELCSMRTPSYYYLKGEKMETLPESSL

For `CC1=Nc2ccc(-c3ccccc3)cc2C(c2ccccc2)N1CCN1CCCCC1` (racemic) [16a, (R/S)-2-Methyl-4,6-diphenyl-3-(2-(piperidin-1-yl)ethyl)-3,4-dihydroquinazoline], the “fold more potent against T. brucei cells than against TryR” value in data set [1] was found to be 10 fold.

For the molecule `CC1=Nc2ccc(Cl)cc2C(c2ccc(C)cc2)N1CCCN(C)C` (stereo not shown) [29a, 3-(6-Chloro-2-methyl-4-p-tolylquinazolin-3(4H)-yl)-N,N-dimethylpropan-1-amine], in data set [2] (mixed inhibition, enzyme–T[S]2 complex), the “TryR Ki′” value amounted to 1460 nM. Besides, the mode of inhibition entry in data set [2] is listed as “linear mixed”. For the same molecule, the ligand efficiency in data set [3] was > 0.3 kcal mol^–1 per non-H atom. The “improvement in TryR potency cf. 9e” value in data set [3] (vs 9e IC50 1.0 μM) is 4 fold.

`CC1=Nc2ccc(Cl)cc2C(c2ccccc2)N1CCN1CCCCC1` (racemic) [9a, (R/S)-6-Chloro-2-methyl-4-phenyl-3-(2-(piperidin-1-yl)ethyl)-3,4-dihydroquinazoline]: in data set [1] (ratio, fold), the “selectivity (MRC5 EC50/T. brucei EC50)” value turned out to be 11.

Regarding `COc1cccc(C2c3cc(Cl)ccc3N=C(C)N2CCN2CCCCC2)c1` (stereo not shown) [29d], the “fold less active than 9a against TryR” value in data set [3] was 15 fold.

Turning to `CCN1C(C)=Nc2ccc(Cl)cc2C1c1ccccc1` (stereo not shown) [6k], the ligand efficiency in data set [3] was > 0.3 kcal mol^–1 per non-H atom.

As to `CC1=Nc2ccc(Cl)cc2C(c2ccccc2)N1CCNC(=O)c1ccco1` (stereo not shown) [11e], the mode of inhibition entry in data set [2] was “mixed mode of inhibition”. The “improvement in TryR potency with respect to ester 1c” value (from here on “improvement … to ester 1c”) in data set [3] turned out to be 11 fold.

For the molecule `N=C(N)c1ccc(OCCCCCOc2ccc(C(=N)N)cc2)cc1` [Pentamidine, pentamidine, reference compound], the EC50 in data set [1] (Trypanosoma brucei, read-out: T. brucei EC50 (positive control)) stood at 5 nM.

With `CC1=Nc2ccccc2C(c2ccccc2)N1CCN1CCCCC1` (stereo not shown) [15b], the “fold less potent against T. brucei than C6-halogen analogues 9a, 15c, 15d” value in data set [1] is listed as roughly 10 fold.

Turning to `CC1=Nc2ccc(Cl)cc2C(c2ccccc2)N1Cc1ccccc1` (racemic) [6a, (R/S)-3-Benzyl-6-chloro-2-methyl-4-phenyl-3,4-dihydroquinazoline], the “improvement … to ester 1c” value in data set [3] is 10 fold.

For `CC1=Nc2ccc(Br)cc2C(c2ccccc2)N1CCN1CCCCC1` (stereo not shown) [15c, 6-bromo-2-methyl-4-phenyl-3-(2-(piperidin-1-yl)ethyl)-3,4-dihydroquinazoline], in data set [3], the “fold more potent against TryR than C6-phenyl analogue 16a” value is 10 fold.

Consider `CC1=Nc2ccc(-c3ccsc3)cc2C(c2ccccc2)N1CCN1CCCCC1` (stereo not shown) [16d], for which the “fold more potent against TryR than other C6-aryls (16a,b,e,f)” value in data set [3] was 5- to 10 fold.

As for `COC(=O)CN1C(C)=Nc2ccc(Br)cc2C1c1ccccc1Cl` (stereo not shown) [1d], the “TryR IC50” value in data set [3] (recombinant T. brucei TryR, mean of at least two replicates) was “inactive”.

Consider `CC1=Nc2ccc(Cl)cc2C(c2ccccc2)N1Cc1cccc(N(C)C)c1` (stereo not shown) [6g], for which the “improvement … to ester 1c” value in data set [3] came out at 10 fold.

Take `CC1=Nc2ccc(-c3ccco3)cc2C(c2ccccc2)N1CCN1CCCCC1` (stereo not shown) [16c]: the “fold more potent against TryR than other C6-aryls (16a,b,e,f)” value in data set [3] is listed as 5- to 10 fold.

As to `COC(=O)CN1C(C)=Nc2ccc(Br)cc2C1c1ccccc1` (stereo not shown) [1a], in data set [2], the Ki was 920 ± 60 nM and the mode of inhibition result is “linear competitive inhibitor”. The “reduction in potency between biochemical (TryR IC50) and cell assay (T. brucei EC50)” value in data set [1] is given as greater than 5 fold. This molecule displayed an EC50 in data set [4] greater than 50000 nM. Moreover, in data set [3], the “difference in activity between T. cruzi and T. brucei TryR” value is listed as less than 3 fold.

In the case of `COC(=O)CN1C(C)=Nc2ccc(C)cc2C1c1ccccc1` (stereo not shown) [1b], the “difference in activity between T. cruzi and T. brucei TryR” value in data set [3] is less than 3 fold.

`CC1=Nc2ccc(Cl)cc2C(C2CCCCC2)N1CCN1CCCCC1` (stereo not shown) [29f]: the “fold less active than 9a against TryR” value in data set [3] is recorded as 15 fold.

Turning to `CC1=Nc2ccc(Cl)cc2C(c2ccccc2)N1Cc1ccccc1F` (stereo not shown) [6d], in data set [3], the “improvement … to ester 1c” value was 10 fold.

As for `CC1=Nc2ccc(Cl)cc2C(c2ccccc2)N1CCN1CCN(C(=O)c2ccco2)CC1` (stereo not shown) [13e], in data set [3], the ligand efficiency is listed as 0.27 kcal mol^–1 per non-H atom and the “improvement … to ester 1c” value turned out to be 22 fold.

In the case of `CC1=Nc2ccc(Cl)cc2C(c2ccccc2)N1CCN1CCN(C)CC1` (stereo not shown) [9c], in data set [3], the ligand efficiency is reported as 0.31 kcal mol^–1 per non-H atom and the “improvement … to ester 1c” value is given as 10 fold.

`CC1=Nc2ccc(Cl)cc2C(c2ccccc2)N1CCN1CCN(C(=O)CN(C)C)CC1` (stereo not shown) [13h]: the mode of inhibition entry in data set [2] was “mixed mode of inhibition”.
